Results published in US8426369B2, “Prevention and treatment of colon cancer” (Rutgers, The State University of New Jersey, priority 2006, dated 2013).

How the values were obtained:
[1] = Body weight / overt toxicity during the ACF feeding study; assay type: in vivo; conditions: 40 ppm in diet
Experimental: Beginning at 5 weeks of age, all rats were fed the modified American Institute of Nutrition-76A (AIN-76A) diet. At 7 weeks of age, the animals were given s.c. injections of azoxymethane (AOM) (CAS no. 25843-45-2, Ash Stevens, Detroit, Mich.) once weekly for 2 weeks at a dose rate of 15 mg/kg body weight. One day after the second AOM injection, groups of animals (n=9 per group) were maintained on AIN-76A diet alone and AIN-76A diet containing 40 ppm pterostilbene. […] See, e.g., U.S. Application Publication No. US 2006-0057231 A1.
On the average, the animal consumed about 0.6 mg pterostilbene per day. All rats were weighed once weekly until termination of the study at 8 weeks after the second AOM treatment were sacrificed by CO2 asphyxiation. After laparotomy, the entire stomach, small intestine, and large intestine were resected. The organs were opened longitudinally, and the contents were flushed with normal saline.

[2] = system: ATF2; assay: Western blot of cytokine-induced ATF2 phosphorylation in HT-29 cells; assay type: cell-based, human; conditions: cytokine-treated HT-29
Experimental: (§1) The cell culture conditions and the reagents used in this example were described in Example 32. Whole cell extracts were collected after the various treatments and analyzed by western blotting. The protein samples were separated on 4-15% SDS-PAGE gels (Biorad, Hercules, Calif.) followed by transfer to a polyvinylidene fluoride membrane. The membranes were blocked with 5% milk in Tris buffer for 1 h and then incubated with the appropriate primary antibody solutions overnight at 4° C. The membranes were washed with Tris buffer, and incubated with horseradish peroxidase conjugated secondary antibody solutions for 1 h at room temperature.
The protein bands were visualized using a chemiluminescence based kit from Amersham Biosciences (Buckinghamshire, UK). The primary antibodies against iNOS, COX-2, IκBα, cyclin D1, c-myc (Santa Cruz Bio-technology, Santa Cruz, Calif.), phospho-STAT3, phospho-Erk1/2, phospho-JNK1/2, phospho-p38, phospho-Akt, phospho-ATF2, phospho-Elk1, PARP (Cell Signaling Technology Inc., Beverly, Mass.) and actin (Sigma, St. Louis, Mo.) and secondary antibodies (Santa Cruz Biotechnology, Santa Cruz, Calif.) were used for probing the abundance of the target protein in the samples. […]

[3] = system: B16M-F10 melanoma cells; conditions: intravenous administration to mice; cited from earlier work
[4] = system: ERK1/2; assay: Western blot of phosphorylated ERK1/2 in cytokine-treated HT-29 cells; assay type: cell-based, human
Experimental: as §1
(§2) The protein bands were visualized using a chemiluminescence based kit from Amersham Biosciences (Buckinghamshire, UK). The primary antibodies against iNOS, COX-2, IκBα, cyclin D1, c-myc (Santa Cruz Bio-technology, Santa Cruz, Calif.), phospho-STAT3, phospho-Erk1/2, phospho-JNK1/2, phospho-p38, phospho-Akt, phospho-ATF2, phospho-Elk1, PARP (Cell Signaling Technology Inc., Beverly, Mass.) and actin (Sigma, St. Louis, Mo.) and secondary antibodies (Santa Cruz Biotechnology, Santa Cruz, Calif.) were used for probing the abundance of the target protein in the samples.

[5] = system: p21; assay: Western blot of p21 in HT-29 cells; assay type: cell-based, human; conditions: HT-29, data not shown
Experimental: The cells were incubated with different concentrations of pterostilbene for 1, 2 and 3 days, and cell proliferation was estimated by measuring [^3H]thymidine incorporated into DNA. […] In order to evaluate whether pterostilbene potentiates cell cycle arrest or apoptosis in HT-29 cells, the effect of pterostilbene on the proteins regulating the cell cycle and/or apoptosis pathways was examined. Cells treated with pterostilbene for 9 h or 18 h were harvested and protein samples were analyzed by Western blotting (FIG. 8B).
as §1
The protein bands were visualized using a chemiluminescence based kit from Amersham Biosciences (Buckinghamshire, UK). […]

[6] = system: iNOS; assay: Cytokine-induced iNOS protein expression in HT-29 cells (Western blot); assay type: cell-based, human; conditions: HT-29; for inhibition of iNOS expression: with cytokine mixture (each 10 ng/ml), 15 hr
Experimental: HT-29 human colon adenocarcinoma cells were grown in 10% FBC/DMEM. Cells (about 600,000 cells/well) were plated in 6-well plate and treated with stilbene analogs shown in FIG. 4 (each at 10 μM) for 15 hours together with cytokine mixture comprising TNF-a, IFN0g, and LPS (each at 10 ng/ml). Cell lysates were prepared and subjected to Western Blot analysis.
Human colon carcinoma cell lines HT-29 was obtained from the American Type Culture Collection (Manassas, Va.). The cells were maintained in Dulbecco's modification of Eagle's medium (DMEM) supplemented with 10% FBS and 1% penicillin/streptomycin at 37° C. and 5% CO2. The cytokine mixture, consisting of 10 ng/ml of TNF-α, IFN-γ and LPS, was used to induce iNOS and COX-2, unless otherwise mentioned. The cells were treated with the test compound either alone or in combination with cytokines for different time intervals and harvested for protein or RNA.
as §1, §2

[7] = system: proliferating cell nuclear antigen (PCNA); assay: PCNA immunostaining and labeling index of colon sections; assay type: in vivo, male F344 rats; conditions: 40 ppm in diet, AOM-treated rats
Experimental: Total number of ACF/colon and multiple aberrant crypts/focus were counted and the data were analyzed by Student's t-test. The PCNA labeling index (PI) was calculated as the [(number of positive cells)/(total number of cells)]×100 for each field which is averaged to get the PI for each section. The significance of treatment between the groups was analyzed by Student's t-Test.
Animals were treated as described in Example 27. Colon samples from each group were harvested at autopsy and fixed in 10% formalin for 24 hr. They were sectioned into 8 to 10 segments, paraffin embedded, and microtomed into 4 μm thick tissue sections. The slides were incubated overnight at room temperature with antibody to proliferating cell nuclear antigen (PCNA) (1:1000 diluted, BD Pharmingen, San Diego, Calif.), iNOS (1:100 diluted, Santa Cruz Biotechnology, Santa Cruz, Calif.), or mucin MUC2 (1:250 diluted, Santa Cruz Biotechnology, Santa Cruz, Calif.).
The slides were incubated with the biotinylated secondary antibody, and then with avidin/biotinylated peroxidase complex for 30 min at room temperature (Vector Labs, Burlingame, Calif.), and were incubated with […] (DAB) substrate. The sections were then counter-stained with Modified Harris Hematoxylin. The images were taken randomly at 400× using Zeiss AxioCam HRc camera fitted to a Zeiss Axioskope 2 Plus microscope. […]

Question: What does the source list for COc1cc(/C=C/c2ccc(O)cc2)cc(OC)c1 [pterostilbene, (E)-4-(3,5-dimethoxystyryl)phenol]?
Answer: overt toxicity [1]: did not cause any overt toxicity; body weights compared to control diet ([1]; throughout the study): comparable; cytokine-induced activation (phosphorylation) of ATF2 [2]: effective in inhibiting; metastatic growth of B16M-F10 melanoma cells in the liver [3]: inhibited metastatic growth; ERK1/2 activation by cytokines [4]: did not block; induction of p21 [5]: no induction; inhibition of iNOS expression ([6]; 1 μM): 14%; inhibition of iNOS expression ([6]; 10 μM): 61%; induction of iNOS by the cytokine mixture ([6]; 30 μM, 9, 12 and 15 h): markedly blocked; inhibition of iNOS expression ([6]; 30 μM): 77%; induction of iNOS by the cytokine mixture, different concentrations ([6]; different concentrations): dose-dependent manner; PCNA positive cells (%) of colon tissue [7]: 44.2±2.9%
